Data from patent publication US20250237650A1 (priority 2021, published 2025).

Assays:
[1] = system: full-length trimeric Alpha, Beta, and Delta spikes; type: binding, SARS-CoV-2
[2] = system: WT, Alpha, Beta, Delta, and Omicron BA.1 spike proteins; type: binding, SARS-CoV-2

Substance | binding affinity to variant spikes relative to WT spike [1] | binding affinities to VOC spikes (in words) [2]
heparin [HEP15, reference compound] | comparable binding affinity to WT spike | –
heparin [reference compound] | – | an increase in affinity between HEP and Omicron spike over Delta and other VOC spikes
ACE2 | – | within nanomolar range
